Test [1] has as its system maternal HIV+ sera (antibodies). In words: RIA / ELISA binding of maternal HIV+ sera to gp120 and gp41 peptides (Example 3). Also noted: species or system human. The essentials:
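Peptides were coated at 10 μg/ml in carbonate buffer pH 9.6 and blocked with 1% BSA. Sera at 1:50 and 1:500 were incubated overnight at 4°C and detected with ¹²⁵I anti-human IgG (RIA) or HRP/TMB at OD450 (ELISA). Specific binding was taken as peptide minus no-peptide wells, scored as a ratio to normal human serum.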
For orientation: In an ELISA, binding on a coated surface is turned into a signal by an enzyme label.

The test system of test [2] is sera samples (antibodies). The experiment in a line: ELISA peptide-binding of maternal sera, MN strain peptides (Example 7). Also noted: species or system human. The conditions noted are these: for % Bound, Non-Transmitter / No. of Sera Samples Bound, Non-Transmitter / % Bound, Transmitter / No. of Sera Samples Bound, Transmitter: n = 5; for Correlation of peptide binding with non-transmission (in words): Example 7. The protocol:
This example provides additional sera screens using peptides corresponding to sequences of the MN strain. The sera samples (5 transmitters and 5 non-transmitters) were obtained from the NIH and differ from those screened in the previous studies. Peptide binding was analyzed by ELISA as described in Example 3.

For the substance LRIVFAVLSVVNRVRQGYSP [Peptide 55], the “Binding of maternal HIV+ serum to peptide (sera/NHS ratio)” value (“Binding … (sera/NHS ratio)” below) is reported as “- (specific OD450 or cpm of sera sample binding to peptide divided by the specific OD450 or cpm of NHS sample binding to peptide, which value is less than 2)” in test [1] (Serum No. 1, Non-Transmission Group); “- (specific OD450 or cpm of sera sample binding to peptide divided by the specific OD450 or cpm of NHS sample binding to peptide, which value is less than 2)” in test [1] (Serum No. 2, Non-Transmission Group); “- (specific OD450 or cpm of sera sample binding to peptide divided by the specific OD450 or cpm of NHS sample binding to peptide, which value is less than 2)” in test [1] (Serum No. 3, Non-Transmission Group); “- (specific OD450 or cpm of sera sample binding to peptide divided by the specific OD450 or cpm of NHS sample binding to peptide, which value is less than 2)” in test [1] (Serum No. 4, Transmission Group); “- (specific OD450 or cpm of sera sample binding to peptide divided by the specific OD450 or cpm of NHS sample binding to peptide, which value is less than 2)” in test [1] (Serum No. 5, Transmission Group); “- (specific OD450 or cpm of sera sample binding to peptide divided by the specific OD450 or cpm of NHS sample binding to peptide, which value is less than 2)” in test [1] (Serum No. 6, Non-Transmission Group). The “Binding … (sera/NHS ratio)” value is recorded as “- (specific OD450 or cpm of sera sample binding to peptide divided by the specific OD450 or cpm of NHS sample binding to peptide, which value is less than 2)” in test [1] (Serum No. 7, Non-Transmission Group); “- (specific OD450 or cpm of sera sample binding to peptide divided by the specific OD450 or cpm of NHS sample binding to peptide, which value is less than 2)” in test [1] (Serum No. 8, Non-Transmission Group); “- (specific OD450 or cpm of sera sample binding to peptide divided by the specific OD450 or cpm of NHS sample binding to peptide, which value is less than 2)” in test [1] (Serum No. 9, Non-Transmission Group); “- (specific OD450 or cpm of sera sample binding to peptide divided by the specific OD450 or cpm of NHS sample binding to peptide, which value is less than 2)” in test [1] (Serum No. 10, Transmission Group); “- (specific OD450 or cpm of sera sample binding to peptide divided by the specific OD450 or cpm of NHS sample binding to peptide, which value is less than 2)” in test [1] (Serum No. 11, Non-Transmission Group); “- (specific OD450 or cpm of sera sample binding to peptide divided by the specific OD450 or cpm of NHS sample binding to peptide, which value is less than 2)” in test [1] (Serum No. 12, Non-Transmission Group). Also, the “Binding … (sera/NHS ratio)” value in test [1] (Serum No. 13, Transmission Group) was “- (specific OD450 or cpm of sera sample binding to peptide divided by the specific OD450 or cpm of NHS sample binding to peptide, which value is less than 2)”; in test [1] (Serum No. 14, Transmission Group) it was “- (specific OD450 or cpm of sera sample binding to peptide divided by the specific OD450 or cpm of NHS sample binding to peptide, which value is less than 2)”; in test [1] (Serum No. 15, Transmission Group) it was “- (specific OD450 or cpm of sera sample binding to peptide divided by the specific OD450 or cpm of NHS sample binding to peptide, which value is less than 2)”; in test [1] (Serum No. 16, Non-Transmission Group), “- (specific OD450 or cpm of sera sample binding to peptide divided by the specific OD450 or cpm of NHS sample binding to peptide, which value is less than 2)”; in test [1] (Serum No. 17, Non-Transmission Group), “- (specific OD450 or cpm of sera sample binding to peptide divided by the specific OD450 or cpm of NHS sample binding to peptide, which value is less than 2)”; in test [1] (Serum No. 18, Non-Transmission Group), “- (specific OD450 or cpm of sera sample binding to peptide divided by the specific OD450 or cpm of NHS sample binding to peptide, which value is less than 2)”. The “Binding … (sera/NHS ratio)” value in test [1] (Serum No. 19, Transmission Group) is “- (specific OD450 or cpm of sera sample binding to peptide divided by the specific OD450 or cpm of NHS sample binding to peptide, which value is less than 2)”; in test [1] (Serum No. 20, Non-Transmission Group) it was “- (specific OD450 or cpm of sera sample binding to peptide divided by the specific OD450 or cpm of NHS sample binding to peptide, which value is less than 2)”. Moreover, in test [2], the “% Bound, Non-Transmitter” value turned out to be 0%. For the same substance, the “No. of Sera Samples Bound, Non-Transmitter” value in test [2] is on record as 0. For the same substance, in test [2], the “% Bound, Transmitter” value is listed as 0%. In test [2], the “No. of Sera Samples Bound, Transmitter” value is reported as 0.

Consider “MN-12: gp41 peptide, amino acids 830-842, HIV strain MN, SEQ ID NO: 197”, for which, in test [2], the “% Bound, Non-Transmitter” value is given as 0%; the “No. of Sera Samples Bound, Non-Transmitter” value is 0; the “% Bound, Transmitter” value came to 0%; the “No. of Sera Samples Bound, Transmitter” value is given as 0.

With “MN-13: gp41 peptide, amino acids 619-637, HIV strain MN, SEQ ID NO: 166”, in test [2], the “% Bound, Non-Transmitter” value is reported as 60%; the “No. of Sera Samples Bound, Non-Transmitter” value was determined as 3; the “% Bound, Transmitter” value was determined as 0%; the “No. of Sera Samples Bound, Transmitter” value came out at 0.

For the substance DTSGRLVHGFLAIIW [MN-8], in test [2], the “Correlation of peptide binding with non-transmission (in words)” value was “selectively correlate with non-transmission”; the “% Bound, Non-Transmitter” value is listed as 80%; the “No. of Sera Samples Bound, Non-Transmitter” value was found to be 4; the “% Bound, Transmitter” value is reported as 20%. The “No. of Sera Samples Bound, Transmitter” value in test [2] amounted to 1.

On to HMLQLTVWGIKQLQAR [MN-15], for which, in test [2], the “Correlation of peptide binding with non-transmission (in words)” value is “selectively correlate with non-transmission”; the “% Bound, Non-Transmitter” value came out at 60%; the “No. of Sera Samples Bound, Non-Transmitter” value is reported as 3; the “% Bound, Transmitter” value is listed as 0%. Besides, the “No. of Sera Samples Bound, Transmitter” value in test [2] turned out to be 0.

For “MN-19: gp41 peptide, amino acids 531-540, HIV strain MN, SEQ ID NO: 169 (MGAASVTLTV)”, in test [2], the “% Bound, Non-Transmitter” value is 20%; the “No. of Sera Samples Bound, Non-Transmitter” value was found to be 1; the “% Bound, Transmitter” value is given as 20%; the “No. of Sera Samples Bound, Transmitter” value was found to be 1.

For the origin of these results see patent US5556744A, “Methods and compositions for diagnosing and treating certain HIV infected patients” (The Trustees of the University of Pennsylvania, priority 1994, dated 1996).
